Source: patent US11292803B2, “Bioreducible N-oxide-based probes for imaging of hypoxia” (THE BOARD OF TRUSTEES OF THE UNIVERSITY OF ILLINOIS, priority 2018, dated 2022)

What was measured:
[1] = Photophysical characterization (absorbance, emission, extinction coefficient, quantum yield); assay type: physicochemical; details: for ΦF / ε / λabs / λem: measured in CHCl3 (Table 1)
Method: Having established an effective synthetic route, attention was turned to the photophysical characterization of HyP-1 and red-HyP-1 (Table 1). HyP-1 has an absorbance maximum at 670 nm and corresponding emission maximum at 697 nm (FIG. 3a). The extinction coefficient (ε) and quantum yield (ΦF) were measured to be 1.5×10^4 cm^−1 M^−1 and 0.33 respectively. Red-HyP-1, on the other hand, has absorbance and emission maxima at 760 nm and 798 nm, respectively.
4-Aminoacetophenone was purchased from AK Scientific. Ethyl iodide, DIPEA, K2CO3, KOH, Na2SO4 and NH4OAc were purchased from Oakwood Chemicals. Benzaldehyde, BF3×OEt2, BIPY, DPI, DMSO, m-CPBA, nitroreductase and rat liver microsomes were purchased from Sigma Aldrich. Nitromethane was purchased from Alfa Aesar. Anaero-Indicators, AnaeroPacka anaerobic gas generators, acetonitrile, n-BuOH, CH2Cl2, EtOAc and Hexanes were purchased from Fisher Scientific. CDCl3 was purchased from Cambridge Isotopes Laboratory. Agarose LE was purchased from Gold Biotechnology. NADPH was purchased from EMD Millipore. All chemicals were used as purchased without further purification. Fluorinated ethylene propylene (FEP) tubing (wall thickness 0.01″, inner diameters 0.08″ and 0.12″) were purchased from McMaster-Carr. Thin-layer chromatography (TLC) was performed using glass-backed TLC plates coated with silica gel containing an UV254 fluorescent indicator (Macherey-Nagel). Flash chromatography was performed with 230-400 mesh silica gel P60 (SiliCycle Inc). UV-visible spectra were recorded on a Cary 60 spectrometer. Fluorescence spectra were recorded on a QuantaMaster-400 scanning spectrofluorometer using micro fluorescence quartz cuvettes (Science Outlet). NMR spectra were taken using Bruker or Varian 500 MHz spectrometers at 25° C. High-resolution mass spectra were acquired using Waters Q-Tof Ultima ESI and Waters Synapt G2-Si ESI/LC-MS spectrometers. Cellular imaging was performed using an EVOS FL cell imaging system. In vivo Fluorescence imaging was performed using an IVIS Spectrum CT live-animal imaging system (Perkin-Elmer, USA). PA imaging was performed using an Endra Nexus 128 photoacoustic tomography system (Ann Arbor, Mich., USA).

[2] = as above; assay type: physicochemical; details: Table 2
[3] = system: CYP450-rich rat liver microsomes
Method: FIG. 4. […] (a) Representative PA image (770 nm) of reaction mixtures incubated under normoxic or hypoxic conditions for 2 h, then quenched with an equal volume of acetonitrile. Dashed lines indicate positioning of FEP tubes. (b) Change in PA signal (770 nm) produced after 2 h incubation of HyP-1 (10 μM) with rat liver microsomes (RLM) (200 μg/mL) and NADPH (50 μM) in normoxic and hypoxic conditions (n=3). (c) Ratiometric fluorescence turn-on after 2 h incubation of HyP-1 (2 μM) with RLM ([…]) and NADPH (50 μM) in normoxic or hypoxic conditions (n=3). (d) Normalized fluorescent turn-on after 1 h hypoxic incubation of HyP-1 (2 μM) with RLM (100 μg/mL) and NADPH (50 μM) under various conditions. Statistical significance represents a comparison to the hypoxic control (n=6). Results with error bars are represented as mean±SD. **p<0.01, ***p<0.001, ****p<0.0001.
The responsiveness of HyP-1 to hypoxia was first evaluated in vitro via fluorescence by incubating HyP-1 with CYP450-rich rat liver microsomes under atmospheric (normoxic) and oxygen-deprived (hypoxic) conditions. […] The PA response of HyP-1 under identical conditions was evaluated by quenching the reaction mixtures with an equal volume of acetonitrile and transferring the solutions into fluorinated ethylene propylene (FEP) tubes, which were inserted into the centre of a 2 cm thick agarose-based tissue-mimicking phantom.
For hypoxic assays only, cuvettes were sealed with septa, then evacuated and filled with N2 (×3) prior to use. Potassium phosphate buffer (0.1 M, pH 7.4) and NADPH (0.5 mM) were degassed with N2 for 30 minutes. For all assays, phosphate buffer (889 μL) rat liver microsomes (200 μg/mL) and HyP-1 (1 μL, 2 mM in DMSO) were added to the cuvette and pre-incubated at 37° C. for 5 minutes. NADPH (100 μL) was added and incubation continued with fluorescence spectra acquisition occurring at the indicated time points. Spectra were acquired according to the following parameters: λex=672, emission range=685-800 nm and λex=750, emission range=760-900 nm. For BIPY and DPI experiments, the compounds were added from stock solutions (1 M BIPY in DMSO and 50 mM DPI in deionized water) following the 5 minute preincubation, and the buffer volume was adjusted such that the total volume in the cuvette was equal to 1 mL. Deactivated microsomes were prepared by heating in a 45° C. water bath for 30 minutes.

E. coli cell lysates = experiment: Incubation with bacterial cell lysates; assay type: biochemical; details: 37° C., 2 h
Method: FIG. 15. […] For the nitroreductase experiment, HyP-1 (2 μM) was incubated in the presence of nitroreductase (0.5 μg/mL) and NADH (100 μM) in 0.1 M potassium phosphate buffer (pH 7.4) at 37° C. for 2 h. For the bacterial experiment, bacteria were grown overnight, and cells were lysed via sonication. The suspension was centrifuged at 4000 rpm for 10 min, and the supernatant was removed. HyP-1 (2 μM) was incubated with cell lysate solution (1 mL) at 37° C. for 2 h.
In addition to Fe(II), the response of HyP-1 to a variety of alkali, alkaline earth and transition metals was also determined. […] To further evaluate the stability of HyP-1, a 10 μM solution of the probe was exposed to ambient light and temperature for up to 5 days. Additionally, a 10 μM solution of HyP-1 supplemented with human plasma was incubated at 37° C. for 3 hours. […] As mentioned previously, a major limitation of 2-nitroimidazole-based hypoxia probes is their susceptibility to oxygen-independent reduction via two-electron processes, such as by bacterial nitroreductases. […] Finally, the photostability of both HyP-1 and red-HyP-1 was evaluated via continuous PA image acquisition at 770 nm over the course of 1 hour.

Row | Compound | absorbance maximum [1] [nm] | decrease in quantum yield on conversion of HyP-1 to red-HyP-1 [1] [fold] | emission maximum [1] [nm] | extinction coefficient (ε) [1] [cm⁻¹ M⁻¹] | increase in extinction coefficient on conversion of HyP-1 to red-HyP-1 [1] [fold] | quantum yield (ΦF) [1] | shift in absorbance on conversion of HyP-1 to red-HyP-1 [1] [nm] | ΦF [1] | ε [1] | λabs [1] [nm] | λem [1] [nm] | Φ [2] | ε [2] | λabs [2] [nm] | conversion by heat-inactivated rat liver microsomes [3] | conversion to red-HyP-1 (E. coli cell lysates) | emission maximum ([3]; authentic solution, as RLM reaction mixture (aqueous buffer)) [nm]
1 | CC[N+]([O-])(CC)c1ccc(-c2cc(-c3ccccc3)c3n2[B-](F)(F)[N+]2=C(c4ccc(OC)cc4)C=C(c4ccccc4)C2=N3)cc1 [HyP-1, 4-(5,5-difluoro-7-(4-methoxyphenyl)-1,9-diphenyl-5H-5λ^4,6λ^4-dipyrrolo[1,2-c:2′,1′-f][1,3,5,2]triazaborinin-3-yl)-N,N-diethylaniline oxide] | 670 | 2.2 | 697 | 15000 | 3.6 | 0.33 | 90 | 0.33 | 1.4 × 10^4 M^−1 cm^1 | 670 | 697 | 0.33 | 1.5 × 10^4 M^−1 · cm^1 | 670 | converted to red-HyP-1 | minimal conversion | 
2 | CCN(CC)c1ccc(-c2cc(-c3ccccc3)c3n2[B-](F)(F)[N+]2=C(c4ccc(OC)cc4)C=C(c4ccccc4)C2=N3)cc1 [Red-HyP-1, 4-(5,5-difluoro-7-(4-methoxyphenyl)-1,9-diphenyl-5H-5λ^4,6λ^4-dipyrrolo[1,2-c:2′,1′-f][1,3,5,2]triazaborinin-3-yl)-N,N-diethylaniline] | 760 |  | 798 | 54000 |  | 0.15 |  | 0.15 | 5.4 × 10^4 M^−1 cm^1 | 760 | 798 | 0.11 | 5.4 × 10^4 M^−1 · cm^1 | 760 |  |  | 785
